Reference: PubChem BioAssay AID1845219 (Molecular Pharmacology Branch, DTP, NCI, 2023)

Test system: SYO-1 tumor spheroids, viability % test/control
Assay: Anticancer human tumor SYO-1 cell line growth inhibition;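 further: spheroids exposed to agents for 7 days before viability read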;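 on viability, T/C: 100% = DMSO vehicle control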
Conditions: spheroids with HUVEC and MSC; for IC50: curve of first compound; for viability, T/C: stronger effect = lower value
Procedure, shortened: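 Complex spheroids of malignant cells with endothelial cells and mesenchymal stem cells; agents alone or combined, from near clinical Cmax (or 10 microM if unknown) down in half-log steps, 0.25% DMSO final.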

COc1ccc([C@@H](O)c2cc(-c3ncnc4cc(N5CCOCC5)ccc34)c(F)cc2Cl)nn1 + COc1cc2c(cc1O)CCNC21CSC2c3c(OC(C)=O)c(C)c4c(c3C(COC1=O)N1C(O)C3Cc5cc(C)c(OC)c(O)c5C(C21)N3C)OCO4
IC50 (second compound 30 pM): 3.17 µM | IC50 (second compound 94.9 pM): 0.772 µM | IC50 (second compound 0.0003 µM): < 0.0316 µM | IC50 (second compound 0.000949 µM): < 0.0316 µM | IC50 (second compound 0.003 µM): < 0.0316 µM | viability, T/C (second compound 30 pM, first compound 0.0316 µM): 104% | viability, T/C (second compound 30 pM, first compound 0.1 µM): 103% | viability, T/C (second compound 30 pM, first compound 0.316 µM): 105% | viability, T/C (second compound 30 pM, first compound 1 µM): 102% | viability, T/C (second compound 30 pM, first compound 3.16 µM): 50.1% | viability, T/C (second compound 30 pM, first compound 10 µM): 2.83% | viability, T/C (second compound 94.9 pM, first compound 0.0316 µM): 97.7% | viability, T/C (second compound 94.9 pM, first compound 0.1 µM): 103% | viability, T/C (second compound 94.9 pM, first compound 0.316 µM): 94.9% | viability, T/C (second compound 94.9 pM, first compound 1 µM): 37% | viability, T/C (second compound 94.9 pM, first compound 3.16 µM): 5.43% | viability, T/C (second compound 94.9 pM, first compound 10 µM): 7.51% | viability, T/C (second compound 0.0003 µM, first compound 0.0316 µM): 12.2% | viability, T/C (second compound 0.0003 µM, first compound 0.1 µM): 9.57% | viability, T/C (second compound 0.0003 µM, first compound 0.316 µM): 3.06% | viability, T/C (second compound 0.0003 µM, first compound 1 µM): 1.34% | viability, T/C (second compound 0.0003 µM, first compound 3.16 µM): 0.26% | viability, T/C (second compound 0.0003 µM, first compound 10 µM): 0.17% | viability, T/C (second compound 0.000949 µM, first compound 0.0316 µM): 0.88% | viability, T/C (second compound 0.000949 µM, first compound 0.1 µM): 0.86% | viability, T/C (second compound 0.000949 µM, first compound 0.316 µM): 0.54% | viability, T/C (second compound 0.000949 µM, first compound 1 µM): 0.23% | viability, T/C (second compound 0.000949 µM, first compound 3.16 µM): 0.03% | viability, T/C (second compound 0.000949 µM, first compound 10 µM): 0.15% | viability, T/C (second compound 0.003 µM, first compound 0.0316 µM): 0.12% | viability, T/C (second compound 0.003 µM, first compound 0.1 µM): 0.12% | viability, T/C (second compound 0.003 µM, first compound 0.316 µM): 0.1% | viability, T/C (second compound 0.003 µM, first compound 1 µM): 0.24% | viability, T/C (second compound 0.003 µM, first compound 3.16 µM): 0.38% | viability, T/C (second compound 0.003 µM, first compound 10 µM): 1.5%

COc1ccc([C@@H](O)c2cc(-c3ncnc4cc(N5CCOCC5)ccc34)c(F)cc2Cl)nn1 + Cn1nnc2c(C(N)=O)ncn2c1=O
IC50 (second compound 1 µM): 4.95 µM | IC50 (second compound 3.16 µM): 4.59 µM | IC50 (second compound 10 µM): 4.93 µM | IC50 (second compound 31.6 µM): 4.12 µM | IC50 (second compound 100 µM): 1.97 µM | viability, T/C (second compound 1 µM, first compound 0.0316 µM): 107% | viability, T/C (second compound 1 µM, first compound 0.1 µM): 112% | viability, T/C (second compound 1 µM, first compound 0.316 µM): 112% | viability, T/C (second compound 1 µM, first compound 1 µM): 107% | viability, T/C (second compound 1 µM, first compound 3.16 µM): 77.3% | viability, T/C (second compound 1 µM, first compound 10 µM): 7.18% | viability, T/C (second compound 3.16 µM, first compound 0.0316 µM): 101% | viability, T/C (second compound 3.16 µM, first compound 0.1 µM): 106% | viability, T/C (second compound 3.16 µM, first compound 0.316 µM): 108% | viability, T/C (second compound 3.16 µM, first compound 1 µM): 105% | viability, T/C (second compound 3.16 µM, first compound 3.16 µM): 68.3% | viability, T/C (second compound 3.16 µM, first compound 10 µM): 11.9% | viability, T/C (second compound 10 µM, first compound 0.0316 µM): 108% | viability, T/C (second compound 10 µM, first compound 0.1 µM): 108% | viability, T/C (second compound 10 µM, first compound 0.316 µM): 110% | viability, T/C (second compound 10 µM, first compound 1 µM): 107% | viability, T/C (second compound 10 µM, first compound 3.16 µM): 74.6% | viability, T/C (second compound 10 µM, first compound 10 µM): 10.7% | viability, T/C (second compound 31.6 µM, first compound 0.0316 µM): 116% | viability, T/C (second compound 31.6 µM, first compound 0.1 µM): 110% | viability, T/C (second compound 31.6 µM, first compound 0.316 µM): 111% | viability, T/C (second compound 31.6 µM, first compound 1 µM): 109% | viability, T/C (second compound 31.6 µM, first compound 3.16 µM): 59.4% | viability, T/C (second compound 31.6 µM, first compound 10 µM): 18.4% | viability, T/C (second compound 100 µM, first compound 0.0316 µM): 113% | viability, T/C (second compound 100 µM, first compound 0.1 µM): 116% | viability, T/C (second compound 100 µM, first compound 0.316 µM): 107% | viability, T/C (second compound 100 µM, first compound 1 µM): 80.2% | viability, T/C (second compound 100 µM, first compound 3.16 µM): 29% | viability, T/C (second compound 100 µM, first compound 10 µM): 2.71%
